# According to US10550105B2 (Ribon Therapeutics Inc., priority 2018, dated 2020):
# Target: PARP7 (Homo sapiens (Human), UniProt Q7Z3E1)
# Assay: Enzymatic assay for inhibition of PARP7: TR-FRET displacement of biotinylated Probe A from the TIPARP active site
# Type: binding
# Settings: Table A-1
# How it was run: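 Read-out: 665/615 nm emission ratio (ex 320 nm, 90 μs delay) indexing bound TIPARP–Probe A. Final incubation 30 min, 25° C; compounds in dose response. Curve fit of % inhibition vs concentration; Hill slope floating or fixed at 1 (3-parameter).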
# PARP7, sequence (Q7Z3E1 whole entry): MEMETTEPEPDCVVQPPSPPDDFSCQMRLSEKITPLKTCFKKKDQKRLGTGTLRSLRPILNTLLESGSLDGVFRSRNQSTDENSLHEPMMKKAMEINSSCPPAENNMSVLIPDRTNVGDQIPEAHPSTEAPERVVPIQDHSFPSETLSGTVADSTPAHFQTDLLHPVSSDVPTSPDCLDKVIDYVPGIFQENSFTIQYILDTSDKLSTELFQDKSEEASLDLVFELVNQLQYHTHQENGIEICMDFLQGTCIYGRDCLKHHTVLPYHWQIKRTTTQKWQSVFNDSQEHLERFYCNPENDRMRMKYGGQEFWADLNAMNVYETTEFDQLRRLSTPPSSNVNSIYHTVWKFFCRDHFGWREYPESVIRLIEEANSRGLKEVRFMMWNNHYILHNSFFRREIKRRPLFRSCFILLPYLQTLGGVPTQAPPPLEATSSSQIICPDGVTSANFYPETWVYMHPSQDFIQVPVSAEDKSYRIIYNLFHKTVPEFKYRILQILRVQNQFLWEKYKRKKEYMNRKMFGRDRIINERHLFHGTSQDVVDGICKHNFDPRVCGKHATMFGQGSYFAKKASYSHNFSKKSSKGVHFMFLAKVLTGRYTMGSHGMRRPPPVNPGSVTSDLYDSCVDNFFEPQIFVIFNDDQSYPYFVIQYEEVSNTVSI
row,Structure (SMILES),IC50
1,"C[C@@H](COCCCC(=O)N1CCN(c2ncc(C(F)(F)F)cn2)CC1)Nc1cn[nH]c(=O)c1C(F)(F)F [Example 634, (S)-5-((1-(4-Oxo-4-(4-(5-(trifluoromethyl)pyrimidin-2-yl)piperazin-1-yl)butoxy)propan-2-yl)amino)-4-(trifluoromethyl)pyridazin-3(2H)-one]",< 100 nM
2,"C[C@@H](COCCC(=O)N1CCN(c2ncc(C(F)(F)F)cn2)CC1)N(C)c1cn[nH]c(=O)c1Cl [Example 636, (S)-4-Chloro-5-(methyl(1-(3-oxo-3-(4-(5-(trifluoromethyl)pyrimidin-2-yl)piperazin-1-yl)propoxy)propan-2-yl)amino)pyridazin-3(2H)-one]",100 to 1000 nM
3,"N#Cc1ccc(N2CCN(C(=O)C[C@H]3CC[C@H](COc4cn[nH]c(=O)c4C(F)(F)F)N3)CC2)nc1 [Example 638, 6-(4-(2-((2R,5R)-5-(((6-Oxo-5-(trifluoromethyl)-1,6-dihydropyridazin-4-yl)oxy)methyl)pyrrolidin-2-yl)acetyl)piperazin-1-yl)nicotinonitrile]",100 to 1000 nM
4,"N#Cc1ccc(N2CCN(C(=O)C[C@@H]3CC[C@@H](COc4cn[nH]c(=O)c4C(F)(F)F)N3)CC2)nc1 [Example 639, 6-(4-(2-((2S,5S)-5-(((6-Oxo-5-(trifluoromethyl)-1,6-dihydropyridazin-4-yl)oxy)methyl)pyrrolidin-2-yl)acetyl)piprazin-1-yl)nicotinonitrile]",≥ 1000 nM
5,"C[C@@H](COCCC(=O)N1CCN(c2ncc(C(F)(F)F)cn2)CC1)N(C)c1cn[nH]c(=O)c1C(F)(F)F [Example 641, (S)-5-(Methyl(1-(3-oxo-3-(4-(5-(trifluoromethyl)pyrimidin-2-yl)piperazin-1-yl)propoxy)propan-2-yl)amino)-4-(trifluoromethyl)pyridazin-3(2H)-one]",100 to 1000 nM
6,"O=C(CC1CCC(COc2cn[nH]c(=O)c2C(F)(F)F)N1)N1CCN(c2ncc(C(F)(F)F)cn2)CC1 (stereo not drawn) [Example 642, 5-((5-(2-Oxo-2-(4-(5-(trifluoromethyl)pyrimidin-2-yl)piperazin-1-yl)ethyl)pyrrolidin-2-yl)methoxy)-4-(trifluoromethyl)pyridazin-3(2H)-one]",100 to 1000 nM
7,"O=C(CCOC[C@H](CC1CCNCC1)Nc1cn[nH]c(=O)c1C(F)(F)F)N1CCN(c2ncc(C(F)(F)F)cn2)CC1 [Example 648, (S)-5-((1-(3-Oxo-3-(4-(5-(trifluoromethyl)pyrimidin-2-yl)piperazin-1-yl)propoxy)-3-(piperidin-4-yl)propan-2-yl)amino)-4-(trifluoromethyl)pyridazin-3(2H)-one]",≥ 1000 nM
8,"O=C(CCOC[C@@H](Nc1cn[nH]c(=O)c1C(F)(F)F)C1CCNCC1)N1CCN(c2ncc(C(F)(F)F)cn2)CC1 [Example 653, (S)-5-((2-(3-Oxo-3-(4-(5-(trifluoromethyl)pyrimidin-2-yl)piperazin-1-yl)propoxy)-1-(piperidin-4-yl)ethyl)amino)-4-(trifluoromethyl)pyridazin-3(2H)-one]",≥ 1000 nM
9,"C[C@@H](COCCC(=O)N1CCN(c2ccc(CC#N)cn2)CC1)Oc1cn[nH]c(=O)c1C(F)(F)F [Example 656, (S)-2-(6-(4-(3-(2-((6-Oxo-5-(trifluoromethyl)-1,6-dihydropyridazin-4-yl)oxy)propoxy)propanoyl)piperazin-1-yl)pyridin-3-yl)acetonitrile]",< 100 nM
10,"CC[C@@H](COCCC(=O)N1CCN(c2ncc(C(F)(F)F)cn2)CC1)Oc1cn[nH]c(=O)c1Br [Example 657, (S)-4-Bromo-5-((1-(3-oxo-3-(4-(5-(trifluoromethyl)pyrimidin-2-yl)piperazin-1-yl)propoxy)butan-2-yl)oxy)pyridazin-3(2H)-one]",< 100 nM
11,"C[C@@H](COCCC(=O)N1CCC(c2ccc(C#N)cn2)CC1)Oc1cn[nH]c(=O)c1C(F)(F)F [Example 658, (S)-6-(1-(3-(2-((6-Oxo-5-(trifluoromethyl)-1,6-dihydropyridazin-4-yl)oxy)propoxy)propanoyl)piperidin-4-yl)nicotinonitrile]",< 100 nM
12,"O=C(CCOC[C@H](CO)Nc1cn[nH]c(=O)c1Br)N1CCN(c2ncc(C(F)(F)F)cn2)CC1 [Example 660, (S)-4-Bromo-5-((1-hydroxy-3-(3-oxo-3-(4-(5-(trifluoromethyl)pyrimidin-2-yl)piperazin-1-yl)propoxy)propan-2-yl)amino)pyridazin-3(2H)-one]",< 100 nM
13,"C[C@@H](COCCC(=O)N1CCN(c2cnc(C(F)(F)F)cn2)CC1)Oc1cn[nH]c(=O)c1C(F)(F)F [Example 662, (S)-5-((1-(3-Oxo-3-(4-(5-(trifluoromethyl)pyrazin-2-yl)piperazin-1-yl)propoxy)propan-2-yl)oxy)-4-(trifluoromethyl)pyridazin-3(2H)-one]",< 100 nM
14,"N#Cc1ccc(N2CCN(C(=O)CCOC[C@H](CN3CCOCC3)Oc3cn[nH]c(=O)c3C(F)(F)F)CC2)nc1 [Example 663, (S)-6-(4-(3-(3-Morpholino-2-((6-oxo-5-(trifluoromethyl)-1,6-dihydropyridazin-4-yl)oxy)propoxy)propanoyl)piperazin-1-yl)nicotinonitrile]",< 100 nM

# Next, values leading:
row,IC50,Structure (SMILES)
1,< 100 nM,"C[C@H](O)[C@@H](COCCC(=O)N1CCN(c2ncc(C(F)(F)F)cn2)CC1)Nc1cn[nH]c(=O)c1C(F)(F)F [Example 635, 5-(((2R,3S)-3-Hydroxy-1-(3-oxo-3-(4-(5-(trifluoromethyl)pyrimidin-2-yl)piperazin-1-yl)propoxy)butan-2-yl)amino)-4-(trifluoromethyl)pyridazin-3(2H)-one]"
2,< 100 nM,"O=C(CCOC[C@H](Cc1cccnc1)Nc1cn[nH]c(=O)c1C(F)(F)F)N1CCN(c2ncc(C(F)(F)F)cn2)CC1 [Example 637, (S)-5-((1-(3-Oxo-3-(4-(5-(trifluoromethyl)pyrimidin-2-yl)piperazin-1-yl)propoxy)-3-(pyridin-3-yl)propan-2-yl)amino)-4-(trifluoromethyl)pyridazin-3(2H)-one]"
3,< 100 nM,"C[C@@H](CCOCCC(=O)N1CCN(c2ncc(C(F)(F)F)cn2)CC1)Nc1cn[nH]c(=O)c1C(F)(F)F [Example 640, (S)-5-((4-(3-Oxo-3-(4-(5-(trifluoromethyl)pyrimidin-2-yl)piperazin-1-yl)propoxy)butan-2-yl)amino)-4-(trifluoromethyl)pyridazin-3(2H)-one]"
4,< 100 nM,"O=C(CCOC[C@H](CCO)Nc1cn[nH]c(=O)c1C(F)(F)F)N1CCN(c2ncc(C(F)(F)F)cn2)CC1 [Example 643, (S)-5-((4-Hydroxy-1-(3-oxo-3-(4-(5-(trifluoromethyl)pyrimidin-2-yl)piperazin-1-yl)propoxy)butan-2-yl)amino)-4-(trifluoromethyl)pyridazin-3(2H)-one]"
5,< 100 nM,"C[C@@H](COCCC(=O)N1CCN(c2cnc(Cl)cn2)CC1)Nc1cn[nH]c(=O)c1C(F)(F)F [Example 644, (S)-5-((1-(3-(4-(5-Chloropyrazin-2-yl)piperazin-1-yl)-3-oxopropoxy)propan-2-yl)amino)-4-(trifluoromethyl)pyridazin-3(2H)-one]"
6,< 100 nM,"C[C@@H](CN(C)CCC(=O)N1CCN(c2ccc(C#N)cn2)CC1)Oc1cn[nH]c(=O)c1C(F)(F)F [Example 645, (S)-6-(4-(3-(Methyl(2-((6-oxo-5-(trifluoromethyl)-1,6-dihydropyridazin-4-yl)oxy)propyl)amino)propanoyl)piperazin-1-yl)nicotinonitrile]"
7,< 100 nM,"C[C@@H](COCCC(=O)N1CC=C(c2ccc(C#N)cn2)CC1)Oc1cn[nH]c(=O)c1C(F)(F)F [Example 646, (S)-1′-(3-(2-((6-Oxo-5-(trifluoromethyl)-1,6-dihydropyridazin-4-yl)oxy)propoxy)propanoyl)-1′,2′,3′,6′-tetrahydro-[2,4′-bipyridine]-5-carbonitrile]"
8,< 100 nM,"O=C(CCOC[C@H](Cc1ccncc1)Nc1cn[nH]c(=O)c1C(F)(F)F)N1CCN(c2ncc(C(F)(F)F)cn2)CC1 [Example 647, (S)-5-((1-(3-Oxo-3-(4-(5-(trifluoromethyl)pyrimidin-2-yl)piperazin-1-yl)propoxy)-3-(pyridin-4-yl)propan-2-yl)amino)-4-(trifluoromethyl)pyridazin-3(2H)-one]"
9,< 100 nM,"O=C(CCOC[C@@H](CC1CCNCC1)Nc1cn[nH]c(=O)c1C(F)(F)F)N1CCN(c2ncc(C(F)(F)F)cn2)CC1 [Example 649, (R)-5-((1-(3-Oxo-3-(4-(5-(trifluoromethyl)pyrimidin-2-yl)piperazin-1-yl)propoxy)-3-(piperidin-4-yl)propan-2-yl)amino)-4-(trifluoromethyl)pyridazin-3(2H)-one]"
10,< 100 nM,"C[C@@H](COCCC(=O)N1CCN(c2ccc(C#N)cn2)CC1)Oc1cn[nH]c(=O)c1Br [Example 650, (S)-6-(4-(3-(2-((5-Bromo-6-oxo-1,6-dihydropyridazin-4-yl)oxy)propoxy)propanoyl)piperazin-1-yl)nicotinonitrile]"
11,< 100 nM,"COC[C@@H](COCCC(=O)N1CCN(c2ncc(C(F)(F)F)cn2)CC1)Nc1cn[nH]c(=O)c1Cl [Example 651, (S)-4-Chloro-5-((1-methoxy-3-(3-oxo-3-(4-(5-(trifluoromethyl)pyrimidin-2-yl)piperazin-1-yl)propoxy)propan-2-yl)amino)pyridazin-3(2H)-one]"
12,< 100 nM,"C[C@@H](COCCC(=O)N1CC=C(c2ncc(C(F)(F)F)cn2)CC1)Nc1cn[nH]c(=O)c1C(F)(F)F [Example 652, (S)-5-((1-(3-Oxo-3-(4-(5-(trifluoromethyl)pyrimidin-2-yl)-3,6-dihydropyridin-1(2H)-yl)propoxy)propan-2-yl)amino)-4-(trifluoromethyl)pyridazin-3(2H)-one]"
13,< 100 nM,"C[C@@H](COCCC(=O)N1CCN(c2ccc(C#N)cn2)CC1)Sc1cn[nH]c(=O)c1C(F)(F)F [Example 655, (S)-6-(4-(3-(2-((6-Oxo-5-(trifluoromethyl)-1,6-dihydropyridazin-4-yl)thio)propoxy)propanoyl)piperazin-1-yl)nicotinonitrile]"
